Data taken from patent publication US20240027453A1, “METHOD FOR DETECTION AND QUANTITATIVE MONITORING OF INFECTIONS WITH HERPESVIRUSES” (The Trustees of Princeton University, priority 2020, published 2024).
Where two headings read alike, the source gives them in different places.

System: HCMV
Assay type: cell-based
Settings: for UL36 (P16767) protein, numerical value of heatmap FIG. 6C / UL37 (P16778) protein, numerical value of heatmap FIG. 6C / UL122 (P19893) protein, numerical value of heatmap FIG. 6C / UL123 (P13202) protein, numerical value of heatmap FIG. 6C / IRS1 (P09715) protein, numerical value of heatmap FIG. 6C / TRS1 (P09695) protein, numerical value of heatmap FIG. 6C / UL13 (P16755) protein, numerical value of heatmap FIG. 6C: IE
Description: In example herpesvirus PRM assay methods shown herein, cell pellets were lysed in 2% SDS, 100 mM NaCl, 0.5 mM EDTA, 50 mM Tris, pH 8.2, and 50 μg of protein was reduced and alkylated with 25 mM TCEP and 50 mM CAM respectively for 20 min at 70° C. Proteins were then precipitated via methanol chloroform precipitation (Wessel & Flugg, Anal Biochem. 138(1):141-143, 1984), resuspended in 50 mM HEPES, pH 8.2 and digested overnight with trypsin (50:1 protein:enzyme w/w ratio). Digested peptides were desalted by SDB-RPS StageTip as previously described (Lum et al., Cell Syst., 7(6):[…], 2018; Greco et al., Methods Mol Biol 1410:39-63, 2016; Federspiel & Cristea, Methods Mol Biol., 1977:115-143, 2019).
Peptides (1.0 μg on column) were analyzed by LC-MS/MS using a Dionex Ultimate 3000 UHPLC coupled online to an EASYSpray ion source and a Q Exactive HF. Peptides were separated on an EASYSpray C18 column (75 μm×25 cm) heated to 50° C. using a linear gradient of 5% B to 32% B over 60 min at a flow rate of 250 nL/min and were ionized at 1.7 kv. Mobile phase A consisted of 0.1% FA in H2O and mobile phase B consisted of 0.1% FA, 2.9% H2O in ACN.
The PRM method was controlled by a peptide inclusion list with retention time windows of 6 min for selected precursor ions.
The PRM assay was developed and analyzed using the open-source software Skyline (Maclean et al., Bioinformatics 26(7):966-968, 2010). Summed area under the curve of 3-4 transitions per peptide was used for quantitation. Targeted peptides were normalized to host protein loading control peptides. Peptide values for each sample were scaled to the average of each peptide across all runs. The average of multiple peptides was used as the inferred value for the protein measurement when more than one peptide was quantified (Federspiel et al., PLoS Biol. 17(9):e3000437. Doi: 10.1371/journal.pbio.3000437). PRM quantitation data were graphed using the Python Seaborn and Matplotlib libraries.
MRC5 primary human fibroblasts (HFs) (ATCC CCL-171) were used as the model system for HSV-1 and HCMV infections and were cultured in complete growth medium (DMEM supplemented with 10% fetal bovine serum and 1% penicillin-streptomycin antibiotics) at 37° C. and 5% CO2. iSLK.219 cells harboring latent KSHV (a gift from Dr. Britt Glaunsinger, University of California, Berkeley) were grown in complete growth medium supplemented with 500 μg/ml hygromycin (ThermoFisher Scientific, 10687010) at 37° C. and 5% CO2. All cells were used for experiments within a maximum of 10 passages.
Wild type HSV-1 strain 17+ (a gift from Beate Sodeik, Hannover Medical School, Hannover, Germany) was propagated as previously described (Diner et al., 2015). Briefly, PO stocks were generated by electroporating pBAC-HSV-1 into U-2 OS cells. […] In a similar manner, wild type HCMV strain AD169 was produced from BAC electroporation into HFs and working stocks were propagated by infecting HFs at a low level. In both cases, cell-associated virus was released by sonication, combined with supernatant virus, then concentrated by ultracentrifugation (20,000 rpm, 2 hours, 4° C. with SW28 swinging bucket rotor [Beckman Coulter]) over a 10% ficoll (HSV-1) or 20% sorbitol (HCMV) cushion. Virus stock titers were determined by plaque assay for HSV-1 or tissue culture infectious dose (TCID50) for HCMV and infections were performed at a multiplicity of infection (MOI) of 3.
12 hours prior to virus infection or reactivation, cells were treated with either the small molecule drug or DMSO/PBS control at an equivalent volume. […] For infection cycles lasting longer than 24 hours, small molecule drugs were re-added to the cell culture medium every 24 hours. Upon collection, cells were rinsed with PBS, scraped into a microcentrifuge tube, pelleted by centrifugation, and rinsed again with PBS.

Nc1ccn(C[C@@H](CO)OCP(=O)(O)O)c(=O)n1 [CDV, cidofovir]
UL36 (P16767) protein, numerical value of heatmap FIG. 6C (timepoint 48): 0.9304 | UL37 (P16778) protein, numerical value of heatmap FIG. 6C (timepoint 48): 0.8657 | UL122 (P19893) protein, numerical value of heatmap FIG. 6C (timepoint 48): 0.07563 | UL123 (P13202) protein, numerical value of heatmap FIG. 6C (timepoint 48): 0.8515 | IRS1 (P09715) protein, numerical value of heatmap FIG. 6C (timepoint 72): 1.017 | TRS1 (P09695) protein, numerical value of heatmap FIG. 6C (timepoint 72): 0.9014 | UL13 (P16755) protein, numerical value of heatmap FIG. 6C (timepoint 72): 0.8575 | UL36 (P16767) protein, numerical value of heatmap FIG. 6C (timepoint 72): 0.8818 | UL37 (P16778) protein, numerical value of heatmap FIG. 6C (timepoint 72): 1.038 | UL122 (P19893) protein, numerical value of heatmap FIG. 6C (timepoint 72): 0.3738 | UL123 (P13202) protein, numerical value of heatmap FIG. 6C (timepoint 72): 0.7924 | IRS1 (P09715) protein, numerical value of heatmap FIG. 6C (timepoint 96): 0.9536 | TRS1 (P09695) protein, numerical value of heatmap FIG. 6C (timepoint 96): 0.7893 | UL13 (P16755) protein, numerical value of heatmap FIG. 6C (timepoint 96): 0.7965 | UL36 (P16767) protein, numerical value of heatmap FIG. 6C (timepoint 96): 0.834 | UL37 (P16778) protein, numerical value of heatmap FIG. 6C (timepoint 96): 0.936 | UL122 (P19893) protein, numerical value of heatmap FIG. 6C (timepoint 96): 0.8676 | UL123 (P13202) protein, numerical value of heatmap FIG. 6C (timepoint 96): 0.7732 | IRS1 (P09715) protein, numerical value of heatmap FIG. 6C (timepoint 120): 1.003 | TRS1 (P09695) protein, numerical value of heatmap FIG. 6C (timepoint 120): 1.103 | UL13 (P16755) protein, numerical value of heatmap FIG. 6C (timepoint 120): 1.075 | UL36 (P16767) protein, numerical value of heatmap FIG. 6C (timepoint 120): 1.234 | UL37 (P16778) protein, numerical value of heatmap FIG. 6C (timepoint 120): 1.212 | UL122 (P19893) protein, numerical value of heatmap FIG. 6C (timepoint 120): 1.141 | UL123 (P13202) protein, numerical value of heatmap FIG. 6C (timepoint 120): 1.074 | MCP (P16729) protein, numerical value of heatmap FIG. 6C (L, timepoint 24): 0.009303 | UL25 (P16761) protein, numerical value of heatmap FIG. 6C (L, timepoint 24): 0.02316 | UL29 (P16764) protein, numerical value of heatmap FIG. 6C (L, timepoint 24): 0.4352 | UL31 (P16848) protein, numerical value of heatmap FIG. 6C (L, timepoint 24): 0.2632 | UL43 (P16781) protein, numerical value of heatmap FIG. 6C (L, timepoint 24): 0.06898 | UL52 (P16793) protein, numerical value of heatmap FIG. 6C (L, timepoint 24): 0.01391 | UL80 (P16753) protein, numerical value of heatmap FIG. 6C (L, timepoint 24): 0.007269 | UL82 (P06726) protein, numerical value of heatmap FIG. 6C (L, timepoint 24): 0.2135 | UL94 (P16800) protein, numerical value of heatmap FIG. 6C (L, timepoint 24): 0.03193 | UL99 (P13200) protein, numerical value of heatmap FIG. 6C (L, timepoint 24): 0.01797 | UL103 (P16734) protein, numerical value of heatmap FIG. 6C (L, timepoint 24): 0.236 | UL117 (P16770) protein, numerical value of heatmap FIG. 6C (L, timepoint 24): 0.1983 | gH (P12824) protein, numerical value of heatmap FIG. 6C (L, timepoint 24): 0.03303 | gL (P16832) protein, numerical value of heatmap FIG. 6C (L, timepoint 24): 0.03204 | gM (P16733) protein, numerical value of heatmap FIG. 6C (L, timepoint 24): 0.0224 | sp|P16809|IR11_HCMVA (P16809) protein, numerical value of heatmap FIG. 6C (L, timepoint 24): 0.04109 | CVC1 (P16799) protein, numerical value of heatmap FIG. 6C (L, timepoint 48): 0.1142 | MCP (P16729) protein, numerical value of heatmap FIG. 6C (L, timepoint 48): 0.01444 | TRM2 (P16792) protein, numerical value of heatmap FIG. 6C (L, timepoint 48): 0.0613 | UL22A (P16845) protein, numerical value of heatmap FIG. 6C (L, timepoint 48): 0.07025 | UL25 (P16761) protein, numerical value of heatmap FIG. 6C (L, timepoint 48): 0.06426 | UL29 (P16764) protein, numerical value of heatmap FIG. 6C (L, timepoint 48): 0.6305 | UL31 (P16848) protein, numerical value of heatmap FIG. 6C (L, timepoint 48): 0.2379 | UL43 (P16781) protein, numerical value of heatmap FIG. 6C (L, timepoint 48): 0.09529 | UL52 (P16793) protein, numerical value of heatmap FIG. 6C (L, timepoint 48): 0.08671 | UL80 (P16753) protein, numerical value of heatmap FIG. 6C (L, timepoint 48): 0.04081
